The text below walks through data of patent US20140031432A1, “TREATMENT OF MITOCHONDRIAL DISEASES WITH VITAMIN K” (Ampere Life Sciences, Inc., priority 2010, published 2014).

Structures are written as SMILES.

What all share (type): cell-based
For test [1], the system named is human dermal fibroblasts from Huntington's patients. Description: Rescue of fibroblasts from Huntington's patients from oxidative stress (Example B). The note with it: Fibroblast, Huntington's cells (Coriell GM 04281), screen as in Example A (BSO stress), read-out: protection against Huntington's, EC50. On the procedure: [The source words this procedure for another cell line and reports this cell line under the same test.] (§1) Test samples and solvent controls were tested for their ability to rescue FRDA fibroblasts stressed by addition of L-buthionine-(S,R)-sulfoximine (BSO), as described in Jauslin et al., Hum. Mol. Genet. 11(24):3055 (2002), Jauslin et al., FASEB J. 17:1972-4 (2003), and International Patent Application WO 2004/003565. […] This specific BSO-mediated cell death can be prevented by administration of antioxidants or molecules involved in the antioxidant pathway, such as alpha-tocopherol, selenium, or small molecule glutathione peroxidase mimetics. However, antioxidants differ in their potency, i.e. the concentration at which they are able to rescue BSO-stressed FRDA fibroblasts.
(§2) MEM (a medium enriched in amino acids and vitamins, catalog no. 1-31F24-I) and Medium 199 (M199, catalog no. 1-21F22-I) with Earle's Balanced Salts, without phenol red, were purchased from Bioconcept. Fetal Calf Serum was obtained from PAA Laboratories. Basic fibroblast growth factor and epidermal growth factor were purchased from PeproTech. Penicillin-streptomycin-glutamine mix, L-buthionine (S,R)-sulfoximine, and insulin from bovine pancreas were purchased from Sigma. Calcein AM was purchased from Molecular Probes. Cell culture medium was made by combining 125 ml M199 EBS, 50 ml Fetal Calf Serum, 100 U/ml penicillin, 100 μg/ml streptomycin, 2 mM glutamine, 10 μg/ml insulin, 10 ng/ml EGF, and 10 ng/ml bFGF; MEM EBS was added to make the volume up to 500 ml. A 10 mM BSO solution was prepared by dissolving 444 mg BSO in 200 ml of medium with subsequent filter-sterilization. During the course of the experiments, this solution was stored at +4° C. The cells were obtained from the Coriell Cell Repositories (Camden, N.J.; repository number GM04078) and grown in 10 cm tissue culture plates. Every third day, they were split at a 1:3 ratio. […]
(§3) 100 μl of PBS containing 1.2 μM Calcein AM were then added to each well. […] After that time the PBS was discarded, the plate gently tapped on a paper towel and fluorescence (excitation/emission wavelengths of 485 nm and 525 nm, respectively) was read on a Gemini fluorescence reader. […]

For test [2], the system named is human dermal fibroblasts from Parkinson's disease patients. Description: Rescue of fibroblasts from Parkinson's disease patients from oxidative stress (Example D). Conditions: Fibroblast, Parkinson's disease cells (Coriell AG20439), screen as in Example A (BSO stress), read-out: protection against PD, EC50. As to the method:
[The source words this procedure for another cell line and reports this cell line under the same test.] as §1
(§4) MEM (a medium enriched in amino acids and vitamins, catalog no. 1-31F24-I) and Medium 199 (M199, catalog no. 1-21F22-I) with Earle's Balanced Salts, without phenol red, were purchased from Bioconcept. Fetal Calf Serum was obtained from PAA Laboratories. Basic fibroblast growth factor and epidermal growth factor were purchased from PeproTech. […]
as §3

In test [3] the test system is human dermal fibroblasts from LHON patients. Description: Rescue of fibroblasts from LHON patients from oxidative stress (Example C). Conditions: Fibroblast, LHON cells (Coriell GM03858), screen as in Example A (BSO stress), read-out: protection against LHON, EC50. On the procedure:
[The source words this procedure for another cell line and reports this cell line under the same test.] as §1, §4, §3

Test [4] relates to Human dermal fibroblasts from Friedreich's ataxia patients. Description: Rescue of BSO-stressed FRDA fibroblasts (Example A). The note with it: FRDA fibroblasts (Coriell GM04078), 1 mM BSO, 48 h, Calcein AM viability, read-out: protection against FRDA, EC50. As to the method:
as §1, §2, §3

With `CC1=CC(=O)c2ccccc2C1=O` [2-methylnaphthalene-1,4-dione], the half-maximal effective concentration (EC50) in test [1] is less than 500 nM; in test [2], less than 500 nM; in test [3], less than 300 nM; in test [4] it was less than 1000 nM.

Consider `CC(C)=CCC/C(C)=C/CC/C(C)=C/CC/C(C)=C/CC1=C(C)C(=O)c2ccccc2C1=O` [2-methyl-3-[3,7,11,15-tetramethylhexadeca-2,6,10,14-tetraen-1-yl]naphthoquinone], for which the EC50 is less than 500 nM in test [1] and less than 1000 nM in test [4].

Consider `CC(C)=CCCC(C)=CCC1=C(C)C(=O)c2ccccc2C1=O` [2-(3,7-dimethylocta-2,6-dien-1-yl)-3-methylnaphthalene-1,4-dione], for which the EC50 in test [1] was less than 500 nM; in test [2] it was less than 500 nM; in test [3] it was less than 300 nM; in test [4], less than 1000 nM.

The term EC50 denotes the concentration needed to bring the measured effect to its halfway point.
